Assay results published in patent publication US12539281B2 (priority 2021, dated 2026).
Read-outs that look alike come from different tables or passages of the source.

Columns and labels:
[1] = system: blood-brain barrier (BBB); test: IA ethyl alcohol, NEO100 or mannitol mediated BBB disruption, extravasated EB dye in perfused mouse brain (Experiments 1-3); format: in vivo, mice; conditions: for EB dye / EB dye penetration level / Patchy, or punctate pattern of EB dye: perfused mouse brain
Procedure: The method of IA and IC injection is similar to the IV push in the clinic, which comprises essentially the steps of: • pushing the injection composition at a particular infusion flow rate immediately after the placement of the IA catheter into the internal carotid artery (ICA) or the insertion of the injection needle into the left ventricle via the ultrasound-guided intracardiac (IC) puncture at room temperature.
When performing the IA and IC injections, the infusion flow rate is about 5-7 μl/second (0.3-0.45 ml/min), the infusion volume is about […] of the body weight (at 1 μl/g, volume/weight ratio), and USP purified water or sodium chloride is used to reconstitute varied EA solutions at room temperature.
Intracardiac injection of NEO100 or EA can be carried out through the procedure of ultrasound-guided intracardiac (IC) injection. […] The mouse is anesthetized in an induction chamber using 2-3% isoflurane in 100% oxygen at a rate of 0.2-0.5 L/min. Fur over the thorax area is removed and the animal is placed in a stereotactic frame in supine position, securing the upper and lower limbs to avoid body movement. The ultrasound transducer is placed above the chest of the animal, and the injection syringe is anchored to a platform to avoid erratic needle movements. An electrocardiogram monitor is used to monitor heart function during the intracardiac injection.
EB dye is used as the non-BBB permeable substance.
Photographs of the perfused brain tissues of the experimental mice after treatment are taken.
Extravasated EB dye is used as the non-BBB permeable substance.

[2] = system: blood-brain barrier (BBB); test: Comparison of intracardiac EA and NEO100 mediated BBB opening, EB dye (Comparative Experiment 19, Experiment 20); format: in vivo, mice
Procedure: Intracardiac injected various concentrations of EA (at 25%, 20%, 3%, 0.3%, and 0.1%, 0.03%, 0.01%) and NEO100 (at 25%, 20%, 3%, 0.3%, and 0.1%, 0.03%, 0.01%) are used on mice to test their effects on BBB disruption and evaluated by the observation of extravasated EB dye in the brain tissues. […] Photographs of the perfused brain tissues from the experimental mice treated with […] EA and NEO100 are taken for observation and comparison.
The same procedure as experiment 19 was performed with IA 0.3% NEO100 with 2% EB dye solution.

[3] = cited from earlier work
[4] = system: blood-brain barrier (BBB); conditions: IA NEO100, IA mannitol; stated for comparison, no test described; cited from earlier work
[5] = Comparison of the toxicity of IA NEO100 and IA EA (Experiment 21)
Procedure: The safety profile of IA 0.3% NEO100 vs. IA 0.3% EA are compared. […] There are 15 experimental mice in each testing group. The potential adverse effects are evaluated.

[6] = system: blood-brain barrier (BBB)
[7] = IA injection 0.3%, 15 mice per group
[8] = IA injection 0.3%, 15 mice per group, number of mice

**Q.** What does the source list for `C=C(C)[C@@H]1CC=C(CO)CC1` [NEO100, perillyl alcohol]?
**A.** EB dye ([1]; IA agent at 0.1%): Observed; EB dye penetration level ([1]; IA agent at 0.1%): Few Patchy; Patchy, or punctate pattern of EB dye ([1]; IA agent at 0.1%): Observed; EB dye ([1]; IA agent at 0.3%): Observed; EB dye penetration level ([1]; IA agent at 0.3%): Widely; Patchy, or punctate pattern of EB dye ([1]; IA agent at 0.3%): Observed; EB dye ([1]; IA agent at 3%): Observed; EB dye penetration level ([1]; IA agent at 3%): Widely; Patchy, or punctate pattern of EB dye ([1]; IA agent at 3%): Observed; EB dye ([1]; IA agent at 5%): Observed; EB dye penetration level ([1]; IA agent at 5%): Widely; Patchy, or punctate pattern of EB dye ([1]; IA agent at 5%): Observed; brain finding in sudden-death mouse (inferior view) ([2]; IA 0.3% NEO100 with 2% EB dye, mouse died right after treatment): bleeding and a blood clot; pattern of breached BBB, coronal section ([2]; IA 25% NEO, mice): random, haphazard, sporadic, patchy, or punctate pattern; dose response of BBB disruption ([2]; intracardiac 25%, 20%, 3%, 0.3%, 0.1%, 0.03%, 0.01%, mice): dose-dependent manner; solubility in water [3]: water-insoluble; interval window of the breached BBB [4]: 4 h; Mortality [5, 7]: 53.33%; tested animals that experienced adverse effects [5, 7]: almost all; Immediate Sudden Death [5, 8]: 3; Intermediate-lasting epilepsy post-injection leading to death [5, 8]: 2; Long-lasting epilepsy post-injection leading death [5, 8]: 3; Moderate-lasting epilepsy post-injection and survival to fully recovery [5, 8]: 3; Transient, mild, or occasional epilepsy post-injection and survival to fully recovery [5, 8]: 4; overall mortality rate ([5]; repeated comparative experiments of IA EA and IA NEO100): around 60%

**Q.** Which “EB dye penetration level” value ([1]; IA agent at 0.1%) does the source give for `OC[C@@H](O)[C@@H](O)[C@H](O)[C@H](O)CO` [mannitol] here?
**A.** Not

**Q.** What about the “EB dye penetration level” value ([1]; IA agent at 0.3%) of the same molecule?
**A.** Not

**Q.** What about the “EB dye penetration level” value ([1]; IA agent at 3%) of the same molecule?
**A.** Not

**Q.** And the “EB dye penetration level” value ([1]; IA agent at 5%)?
**A.** Not

**Q.** What about the brain damage ([1]; IA mannitol at 0.1%, 0.3%, 3%, and 5%, mice) of the same molecule?
**A.** Some brain damage is observed

**Q.** And the “disrupted BBB after IC mannitol” value ([1]; IC application of varied volumes of high concentrations of mannitol, mice)?
**A.** No disrupted BBB is observed

**Q.** And the “EB (induced BBB disruption)” value ([6]; group A: 1800 μl 25% mannitol infused in 30 seconds)?
**A.** observed

**Q.** What about the “EB (induced BBB disruption)” value ([6]; group C: 300 μl 25% mannitol at regular speed in 1 minute, warmed to 37° C.) of the same molecule?
**A.** not observed

**Q.** And the “interval window of the breached BBB” value [4]?
**A.** 6 to 7 h
